The target of series [1] is PfATC (Plasmodium falciparum, UniProt A0A5K1K910). The series is described as follows: biochemical. Particulars: for IC50: in vitro activity assay, PfATC 50 nM, 2 mM CP, 1 mM aspartate, read-out: PfATC IC50. Here is the method: Following washing with Lysis buffer
Excess imidazole was removed and the His-tag was cleaved
400Then, the sample was loaded onto a 5 ml HiTrap SP HP column (GE Healthcare, USA) and
410PfATC activity assay. Enzymatic reactions were performed in a total volume of 150 µL in 50 mM
Small-molecule dose-response curves were
The reactions were initiated by adding CP and quenched after 10 min with
After plates were sealed with transparent sealing
(§1) 420tape to prevent evaporation and incubated overnight in the dark place at room temperature. After
Analyses were performed using
The enzymatic assay was performed as described herein above for
Briefly, the reaction was carried out at room
The reaction was initiated by
Then the plate was covered by sealing
(§2) 430tape and kept in dark place at room temperature and then heated to 95 °C for 15min in dark and kept

The target of series [2] is T1, HsATC (Homo sapiens, UniProt P27708).
T1 construct: ATCase domain of CAD; made in house; host or cells: E. coli BL21 star
T1 sequence (P27708 1918-2225 limits assumed): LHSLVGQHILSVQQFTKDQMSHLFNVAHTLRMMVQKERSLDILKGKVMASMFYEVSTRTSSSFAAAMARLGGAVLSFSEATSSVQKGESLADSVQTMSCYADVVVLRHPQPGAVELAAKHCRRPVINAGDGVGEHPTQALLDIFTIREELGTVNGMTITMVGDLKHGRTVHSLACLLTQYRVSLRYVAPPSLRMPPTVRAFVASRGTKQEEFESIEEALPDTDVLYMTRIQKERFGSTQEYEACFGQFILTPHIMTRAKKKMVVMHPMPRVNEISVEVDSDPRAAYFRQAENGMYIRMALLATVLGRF
The series is described as follows: HsATC activity assay. The settings on record: in vitro activity assay. The format is biochemical. Here is the method:
417100μL of stop mix (two volumes of Antipyrine (26.5 mM 2,3-Dimethyl-1-phenyl-3-pyrazolin-5-
418one in 50% (v/v) sulfuric acid) and one volume of 2,3-Butanedione monoxime (80 mM 2,3-
419Butanedione monoxime in 5% (v/v) acetic acid). After plates were sealed with transparent sealing
as §1
421incubation, the plates were heated at 95 °C for 15 min in dark place, and kept for 30 min before
422measuring at 466 nm suing a Synergy H1 Hybrid Reader (BioTek). Analyses were performed using
423Microsoft Excel and Graph Pad Prism.
424HsATC activity assay. The enzymatic assay was performed as described herein above for
425enzymatic assay of PfATC with minor modifications. Briefly, the reaction was carried out at room
426temperature in a total volume of 150 μl of 10 mM L-aspartate and 5 mM carbamoyl phosphate
427saturated substrate solution in 50 mM Tris-Acetate buffer pH 8.3. hsATC was pre-incubated with
428inhibitor and L-Asp for 10 min at room temperature on a shaker. The reaction was initiated by
429adding CP and stopped after 5 min with […] color mix. Then the plate was covered by sealing
as §2
431the plate in the dark for another 30 min before measuring the absorbance at 466 nm suing a Synergy
432H1 Hybrid Reader (BioTek). […]

Series [3] relates to normal lymphocytes. The series is described as follows: Human cell line experiments, AlamarBlue, normal lymphocytes. The settings on record: for EC50: Hs normal lymphocytes, 72 hours, read-out: EC50 against normal lymphocytes; for cytotoxicity against cultured human lymphocytes: at 100 μM. It is filed as cell-based. Here is the method:
page 4: […] 418one in 50% (v/v) sulfuric acid) and one volume of 2,3-Butanedione monoxime (80 mM 2,3- 419Butanedione monoxime in 5% (v/v) acetic acid). After plates were sealed with transparent sealing 420tape to prevent evaporation and incubated overnight in the dark place at room temperature. After 421incubation, the plates were heated at 95 °C for 15 min in dark place, and kept for 30 min before 422measuring at 466 nm suing a Synergy H1 Hybrid Reader (BioTek). Analyses were performed using 423Microsoft Excel and Graph Pad Prism. 424HsATC activity assay. The enzymatic assay was performed as described herein above for 425enzymatic assay of PfATC with minor modifications. Briefly, the reaction was carried out at room 426temperature in a total volume of 150 μl of 10 mM L-aspartate and 5 mM carbamoyl phosphate 427saturated substrate solution in 50 mM Tris-Acetate buffer pH 8.3. hsATC was pre-incubated with 428inhibitor and L-Asp for 10 min at room temperature on a shaker. The reaction was initiated by 429adding CP and stopped after 5 min with […] color mix. Then the plate was covered by sealing 430tape and kept in dark place at room temperature and then heated to 95 °C for 15min in dark and kept 431the plate in the dark for another 30 min before measuring the absorbance at 466 nm suing a Synergy 432H1 Hybrid Reader (BioTek). Analyses were performed using Microsoft Excel and Graph Pad 433Prism. 434Human cell line experiments. The cell lines A375 (melanoma), H1299 (lungca), MCF7 435(breastca), REC-1 (mantel cell lymphoma, SUDHL2 (diffuse large B-cell lymphoma) and normal 436lymphocytes (obtained from tonsils) were cultured in RPMI 1640 (Lonza BioWhittaker, 437Walkersville, MD, USA) with 10% fetal bovine serum (FBS; HyClone Thermo Scientific, 438Waltham, MA, USA). Cells were plated in 96-wells plates and incubated with increasing 439concentrations of compounds for 72 hours as indicated. All experiments were performed in page 5: 440triplicate. AlamarBlue (Thermo Fisher Scientific, Waltham, MA USA) was added eight hours prior 441to read-out (extinction 560nm, emission 590nm). […] A freshly prepared protein 443solution at a concentration of 10 mg ml -1 and immediately used in crystallization trials. The 444screening for crystallization conditions for PfATC was performed using a high-through 445crystallization robot (Gryphon, Art Robbins) against commercially available sparse-matrix 446screening kits (JCSG plus and PACT premier; Molecular Dimensions Ltd.). All experiments were 447performed at 293 K using the sitting drop vapor diffusion technique in 96 well MRC2 plates 448(Molecular Dimensions Ltd.). Equal volumes (0.2 μL) of protein solution and crystallization 449reagent were equilibrated against 50 μL of reservoir solution. Medium size single crystals appeared 450overnight in various conditions containing PEG3350/4000. The apo-crystals were soaked for 10 […] 452the solution plus 20% glycerol, flash-cooled and stored in liquid nitrogen. The flashed cooled 453crystals was shipped to […], Deutsches Elektronen-Synchrotron DESY Beamline P11. […] The purified PfATC […] 457stocks in 100% DMSO) at a molar ratio of 1:5. The mixture was incubated at 20 °C for 40 minutes, 458then centrifugation was performed to remove the precipitate. The supernatant was immediately 459used in crystallization trials. The crystallization reagent were the same as apo crystallization […] The crystals were flash- 461cooled and stored in liquid nitrogen, and was shipped to […], Deutsches Elektronen- 462Synchrotron DESY Beamline P11.
In general terms: The colour change of resazurin is a common sign of viable cells or microbes.

[4] abbreviates: 10 mM L-aspartate, 5 mM carbamoyl phosphate, read-out: HsATC IC50.

Data on 4 molecules can be found in publication PMC9585585, “Discovery of Small-Molecule Allosteric Inhibitors of PfATC as Antimalarials” (Journal of the American Chemical Society, 2022).

Several values for one entry are separate records, joined by “and”; a condition that tells them apart may be missing. Equal values may be shown once. Read-outs that look alike come from different tables or passages of the source.

A word on the IC50: it is the midpoint of a concentration-inhibition curve. A word on the EC50: it is the concentration giving half of the maximal effect.

Sequence of PfATC (A0A5K1K910 entry or part of it): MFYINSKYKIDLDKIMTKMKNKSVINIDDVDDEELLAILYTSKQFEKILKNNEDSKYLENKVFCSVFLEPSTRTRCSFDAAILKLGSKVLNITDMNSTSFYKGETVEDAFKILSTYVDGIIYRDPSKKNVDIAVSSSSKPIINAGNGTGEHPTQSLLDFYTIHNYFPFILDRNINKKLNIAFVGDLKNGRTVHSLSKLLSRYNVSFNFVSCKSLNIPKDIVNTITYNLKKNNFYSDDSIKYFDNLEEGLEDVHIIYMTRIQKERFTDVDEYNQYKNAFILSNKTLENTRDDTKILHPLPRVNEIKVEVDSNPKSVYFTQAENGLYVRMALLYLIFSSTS

Take `CC(C)(C)OC(=O)Nc1sc(-c2ccccc2)cc1C(=O)NCCc1ccccc1` [BDA-04]: the IC50 in series [1] is 0.0772 µM; in series [2] (setting [4]), 2.84 µM; in series [2] (n = 3, read-out: IC50 against HsATC), 2.8 µM and 2.84 µM. For the same molecule, the mechanism of inhibition result in series [1] (with CP and Asp, 0, 200 and 400 nM BDA-04, one substrate fixed (2 mM CP or 1 mM Asp)) is recorded as “noncompetitive inhibitor”. In series [3] (Homo sapiens, Lymphocyte), the EC50 is around 1000 µM. In addition, the “cytotoxicity against cultured human lymphocytes” value in series [3] is on record as “no cytotoxicity”.
For `CC(C)(C)OC(=O)Nc1sc(-c2ccccc2)cc1C(=O)NCCc1ccc(O)cc1` [BDA-11], the IC50 is 0.0456 µM and 0.046 µM and 0.0457 µM in series [1]; 0.116 µM in series [2] (setting [4]). Moreover, the EC50 in series [3] stood at 757 µM.
On to `CC(C)(C)OC(=O)Nc1sc(-c2ccccc2)cc1C(=O)NCCO` [BDA-14], for which the IC50 in series [1] was 0.115 µM and 0.114 µM; in series [2] (setting [4]) it was 0.137 µM. In addition, in series [3], the EC50 was above 1000 µM. Besides, the “cytotoxicity against cultured human lymphocytes” value in series [3] is given as “no cytotoxicity”.
For `COc1cccc(CCNC(=O)c2cc(-c3ccccc3)sc2NC(=O)OC(C)(C)C)c1` [BDA-24], the IC50 in series [1] was 0.103 µM; in series [2] (setting [4]) it was 0.316 µM. Further, the 50% effective concentration (EC50) in series [3] was determined as 911 µM.
